Results published in patent publication US4497803A, “Inclusion compound of lankacidin-group antibiotic and use thereof” (priority 1982, dated 1985).
In brackets after ≈: the same amount, converted by molar mass. Like-named read-outs stand apart in the source and are kept apart here.

Legend:
St. aureus 209P = test: Stability of inclusion compound of lankacidin-group (24° C., for 6 days): antibacterial activity by paper disk assay; format: cell-based; conditions: methanol
Procedure: The inclusion compound of the present invention is stable in an aqueous solution, although it splits into lankacidin-group moiety and cyclodextrins moiety, when it is in the form of solution or powder, by contacting it with organic solvents (e.g., ethyl acetate, methyl isobutyl ketone) or various carriers (e.g., silica gel, high-porous resins). […] In comparing the antibacterial activity, concentrations of the inclusion compound are calculated in terms of lankacidin-group compound from which the inclusion compound is prepared.
Stability of inclusion compound of lankacidin-group
*1 Paper disk assay using Trypticase soy agar (Baltimore Biologicals Ltd.
U.S.A.) as test culture media.
*2 1000 μg/ml, Lankacidingroup is stable in methanol.
*3 Aqueous solution of the inclusion compound with cyclodextrin (1000
μg/ml calculated in terms of lankacidingroup)

[1] = Solubility of inclusion compound in water; format: physicochemical
Procedure: The lankacidin-group is added to each of solutions containing various amounts of cyclodextrin. The minimum concentration of cyclodextrin which dissolves the maximum amount of the lankacidin-group compound and practical concentrations thereof are determined on the basis of amounts of the lankacidin-group compound dissolved in the cyclodextrin solutions. Then, the molar ratio of cyclodextrin to lankacidin-group compound is calculated by the following equation:
Molar ratio=[Molarity of cyclodextrin]:[(Saturation molarity of lankacidin-group compound in a certain concentration of cyclodextrin-solution)-(saturation molarity of lankacidin-group compound in an aqueous solution)].
Moreover, a large amount of the present inclusion compound is dissolved in water and it is kept stably therein. Solubility of the inclusion compound in water is greater than that of landacidin-group compounds in water, when the amount of the inclusion compound dissolved is calculated in terms of lankacidin-group compound, and than saturation concentration of cyclodextrin in water so far as cyclodextrin contained in the inclusion compound is concerned (Table 2).
(1) Solubility of lankacidingroup in water.
(2) Solubility of lankacidingroup in M/100 cyclodextrin solution.
(3) Concentration of cyclodextrin of (2).
(4) Solubility (maximum) of the present inclusion compound (calculated in
terms of lankacidingroup contained) in water.
(5) Concentration of cyclodextrin contained in the inclusion compound of […]

[2] = Solubility in β-CD solution, shaken 16 hours (Example 3); format: physicochemical; conditions: for Solubility in β-CD solution as function of β-CD concentration: from the vicinity of 10^-3 Mol/l of β-CD
Procedure: (§1) Powdery lankacidin C was added to an aqueous solution of cyclodextrin (hereinafter referred to as "CD") to have 4 mg/ml of the lankacidin C contained. After the mixture was stirred with a mixer, it was shaken at 5° C. for 2 hours, and passed through filter paper. The absorbancy of the filtrate was measured at 227-229 nm to determine concentration of the lankacidin C.
The solubilities of lankacidin A, lankacidin C and lankacidinol in a β-CD solution were measured in the same manner as that of Example 1 except that the shaking was continued for 16 hours.

[3] = Stability of lankacidin A and C in methanolic aqueous solutions, 40° C., HPLC (Example 7); format: physicochemical; conditions: for Residual rate / remaining at 4 h / remaining at 6 h: 10 μg/ml, 40° C.; for Residual rate: 0 hr; for Effect of β-cyclodextrin on stability in methanolic aqueous solutions: 1000 times β-CD by weight added; for remaining at 4 h / remaining at 6 h: read-out: Residual rate
Procedure: 5 ml each of a methanolic solution containing lankacidin A or C in a concentration of 100 μg per ml was added to 45 ml each of pH 4.5 and pH 7.0 buffer solutions and a buffer solution containing β-cyclodextrin.
Each mixture was placed in a glass vessel, and then sealed. While the mixtures were kept in the vessel at 40° C., 5 ml each was taken out from time to time and extracted with ethyl acetate. The organic layers were dried over anhydrous sodium sulfate and the concentrations of the lankacidin A or C was measured with high-performance liquid chromatography (HPLC).
Apparatus: Water Associates ALC/GPC 240 (Waters Associates Inc., U.S.A.)
Column: μPoracil 30 cm×3.9 mm.phi.
Eluent: n-Hexane: isopropyl alcohol: acetic acid (75:25:0.2).

[4] = Solubility / suspension in physiological saline for injection (Test Example); format: physicochemical
Procedure: 10 mg (titer) calculated in terms of lankacidin A is soluble in 1 ml each of physiological saline solution. As a control, lankacidin A itself used in Example 5 was employed.
5.2 ml (titer: 10 mg/kg) of this suspension was administered to pig No. 1 and 4.9 ml (titer: 7 mg/kg) was administered to pig No. 2 by injecting it into root portion of ear once a day for two days.
Thus, administration was impossible.

[5] = Solubility of lankacidin C in aqueous cyclodextrin solution, shaken at 5° C. for 2 hours (Example 1); format: physicochemical
Procedure: as §1

[6] = m/100 cyclodextrin solution, M/100 cyclodextrin, (3) cyclodextrin 11.3 mg/ml, read-out: (2) Solubility of lankacidin-group in M/100 cyclodextrin solution
[7] = water, read-out: (1) Solubility of lankacidin-group in water
[8] = aqueous β-cd solution, β-CD 2 × 10^-3 Mol/l
[9] = aqueous β-cd solution, β-CD 2 × 10^-4 Mol/l
[10] = aqueous β-cd solution, β-CD 5 × 10^-3 Mol/l
[11] = aqueous β-cd solution, β-CD 5 × 10^-4 Mol/l
[12] = aqueous β-cd solution, β-CD 10^-2 Mol/l
[13] = aqueous β-cd solution, β-CD 10^-3 Mol/l
[14] = aqueous β-cd solution, β-CD 10^-4 Mol/l
[15] = pH 7.0, β-cyclodextrin 10 mg/ml
[16] = methanolic aqueous buffer, pH 7.0, no β-cyclodextrin
[17] = methanolic buffer with β-cyclodextrin, pH 4.5, β-cyclodextrin 10 mg/ml
[18] = methanolic buffer with β-cyclodextrin, pH 7.0, β-cyclodextrin 10 mg/ml

For `CC(=O)OC1C=CC(C)=CCC(O)C=CC(C)=CC(NC(=O)C(C)=O)C2(C)C(=O)OC(C1)C(C)C2=O` (centres unmarked) [Lankacidin A, lankacidin A], which “Antibacterial activity, inhibition diameter” value (St. aureus 209P; 0 day, 1000 μg/ml) is on record?
The value was 26.75 mm.

What about the “Antibacterial activity, inhibition diameter” value (St. aureus 209P; 3 days at 24° C., 1000 μg/ml) of the same molecule?
The value was 27.0 mm.

And the “Antibacterial activity, inhibition diameter” value (St. aureus 209P; 6 days at 24° C., 1000 μg/ml)?
Its value is 23.25 mm.

What about the solubility [1, 6] of the same molecule?
The solubility was 2690 µg/mL (≈ 5360 µM).

What about the solubility [1, 7] of the same molecule?
The solubility was 181 µg/mL (≈ 361 µM).

What about the solubility at 16 h [2, 8] of the same molecule?
The solubility at 16 h was 632 µg/mL (≈ 1260 µM).

And the solubility at 16 h [2, 9]?
The solubility at 16 h was 201 µg/mL (≈ 401 µM).

And the solubility at 16 h [2, 10]?
Its solubility at 16 h is 1370 µg/mL (≈ 2730 µM).

What about the solubility at 16 h [2, 11] of the same molecule?
The solubility at 16 h was 265 µg/mL (≈ 528 µM).

What about the solubility at 16 h [2, 12] of the same molecule?
The solubility at 16 h was 2690 µg/mL (≈ 5360 µM).

And the solubility at 16 h [2, 13]?
The solubility at 16 h was 400 µg/mL (≈ 797 µM).

And the solubility at 16 h [2, 14]?
The solubility at 16 h was 195 µg/mL (≈ 389 µM).

What about the “Solubility in β-CD solution as function of β-CD concentration” value [2] of the same molecule?
The value was “increase in proportion to the concentration of β-CD”.

And the solubility at 16 h ([2]; water, β-CD 0 Mol/l)?
Its solubility at 16 h is 181 µg/mL (≈ 361 µM).

And the Residual rate ([3]; pH 4.5, no β-cyclodextrin)?
Its Residual rate is 100%.

And the Residual rate ([3]; pH 4.5, β-cyclodextrin 10 mg/ml)?
Its Residual rate is 100%.

What about the Residual rate ([3]; pH 7.0, no β-cyclodextrin) of the same molecule?
The Residual rate was 100%.

And the Residual rate [3, 15]?
Its Residual rate is 100%.

What about the “Effect of β-cyclodextrin on stability in methanolic aqueous solutions” value [3] of the same molecule?
Its value is “increased stabilities”.

What about the remaining at 4 h ([3]; methanolic aqueous buffer, pH 4.5, no β-cyclodextrin) of the same molecule?
Its remaining at 4 h is 34.5%.

What about the remaining at 4 h [3, 16] of the same molecule?
The remaining at 4 h was 17.4%.

What about the remaining at 4 h [3, 17] of the same molecule?
Its remaining at 4 h is 91.9%.

What about the remaining at 6 h [3, 17] of the same molecule?
Its remaining at 6 h is 85.7%.

And the remaining at 4 h [3, 18]?
Its remaining at 4 h is 58.3%.

And the remaining at 6 h [3, 18]?
The remaining at 6 h was 48.1%.

What about the “Preparation of injection/suspension in sterilized physiological saline solution” value [4] of the same molecule?
Its value is “suspension could not be obtained due to separation of the drug”.

Which results are given for `CC(=O)C(=O)NC1C=C(C)C=CC(O)CC=C(C)C=CC(O)CC2OC(=O)C1(C)C(=O)C2C` (centres unmarked) [Lankacidin C, lankacidin C]?
Antibacterial activity, inhibition diameter (St. aureus 209P; 0 day, 100 μg/ml): 28.25 mm; Antibacterial activity, inhibition diameter (St. aureus 209P; 3 days at 24° C., 100 μg/ml): 29.5 mm; Antibacterial activity, inhibition diameter (St. aureus 209P; 6 days at 24° C., 100 μg/ml): 29.5 mm; solubility [1, 6]: 3540 µg/mL (≈ 7700 µM); solubility [1, 7]: 268 µg/mL (≈ 583 µM); solubility at 2 h [5, 12]: 3730 µg/mL (≈ 8120 µM); solubility at 2 h [5, 13]: 650 µg/mL (≈ 1410 µM); solubility at 2 h [5, 14]: 280 µg/mL (≈ 609 µM); solubility at 2 h ([5]; aqueous γ-cd solution, γ-CD 10^-2 Mol/l): 2390 µg/mL (≈ 5200 µM); solubility at 2 h ([5]; aqueous γ-cd solution, γ-CD 10^-3 Mol/l): 460 µg/mL (≈ 1000 µM); solubility at 2 h ([5]; aqueous γ-cd solution, γ-CD 10^-4 Mol/l): 260 µg/mL (≈ 566 µM); solubility at 2 h ([5]; aqueous γ-cyclodextrin solution, γ-CD 10^-1 Mol/l): 3790 µg/mL (≈ 8250 µM); solubility at 2 h ([5]; water, β-CD, CD 0 Mol/l): 260 µg/mL (≈ 566 µM); solubility at 2 h ([5]; water, γ-CD, CD 0 Mol/l): 260 µg/mL (≈ 566 µM); Solubility in CD solution ([5]; β-CD and γ-CD solution): high solubility; solubility at 16 h [2, 8]: 934 µg/mL (≈ 2030 µM); solubility at 16 h [2, 9]: 304 µg/mL (≈ 662 µM); solubility at 16 h [2, 10]: 1780 µg/mL (≈ 3870 µM); solubility at 16 h [2, 11]: 409 µg/mL (≈ 890 µM); solubility at 16 h [2, 12]: 3350 µg/mL (≈ 7290 µM); solubility at 16 h [2, 13]: 566 µg/mL (≈ 1230 µM); solubility at 16 h [2, 14]: 262 µg/mL (≈ 570 µM); Solubility in β-CD solution as function of β-CD concentration [2]: increase in proportion to the concentration of β-CD; solubility at 16 h ([2]; water, β-CD 0 Mol/l): 237 µg/mL (≈ 516 µM); solubility ([2]; β-CD 10^-3 Mol/l, 960 min): 715 µg/mL (≈ 1560 µM); Residual rate ([3]; pH 7.0, no β-cyclodextrin): 100%; Residual rate [3, 15]: 100%; Effect of β-cyclodextrin on stability in methanolic aqueous solutions [3]: increased stabilities; remaining at 6 h [3, 16]: 43.7%; remaining at 6 h [3, 18]: 88.2%
